We go through 2 molecules from patent US6677431B2, “Design, preparation, and properties of antibacterial β-peptides” (The Trustees of the University of Pennsylvania, priority 1999, dated 2004).

Where two headings read alike, the source gives them in different places.

One test has as its system recA-lux bioluminescence. Description: Inhibition of recA-lux bioluminescence in M9 media. It counts as cell-based. The conditions noted are these: inhibition of recA-lux bioluminescence in M9 media (Van Dyk lab). As to the method:
∇in M9 medium (data from Hamuro et al., ref. 5) # In M9 medium.+Hemolysis experiments were performed by incubating a 0.25% suspension of human RBc's in 10 mM Tris buffer containing […] at pH 7.0 with varying amounts of peptide. The hemolytic dose required to lyse 50% of the RBC's is reported as the HD50.
(§1) The biolumenescence data result from test carried out according to U.S. Pat. No. 5,683,868, Highly Sensitive Method For Detecting Environmental Insults, issued Nov. 4, 1997 to LaRossa et al., the entire contents of the disclosure of are hereby incorporated by reference, The tests described in this patent permit antibacterial properties of peptides or any other materials to be assessed. […] Along these lines, FIG. 5 illustrates a relationship between relative light units and minutes of exposure of bacteria to the various materials in the legend. P×B represents polymyxin, a known antibacterial material. In the graph, a decrease in RULs corresponds to a decrease in bacteria. […]

The next test relates to osmY-lux fusion. Kind of test: Stress-induced response assay, induction of osmY-lux fusion. It counts as cell-based. The conditions noted are these: for induction of osmY-lux: Group II peptides; for osmY gene fusion response: Table 4, stress sensed osmotic shock. How it is done:
(§2) Stress-induced response and growth inhibition assays were carried out on samples of four of the β-peptide and compared to known polycationic peptides.
(§3) Polymyxin B was tested both rich, LB, medium and defined, M9, medium. The other natural peptides were tested in LB medium.
(§4) The β-peptides were tested in M9 medium. * In LB medium (data from Oh et al. Biochem. Biophys. Acta. 2000,1463: 43-54)
(§5) However, similar to the magainins, no induction of the micF-lux fusion was observed. Also, the minimum inhibitory concentrations (MIC's) were determined to be higher than those reported in the published manuscript.
(§6) Samples of these β-peptides 1 and 2 were evaluated in the stress-induced response assays.
as §1

A further test relates to K91 E. coli. It counts as cell-based. As to the method: The biological activities of these peptides were measured using human erythrocytes and E. coli as models for mammalian and bacterial cells, respectively. Hemolysis was monitored in 10 mM Tris, 150 mM NaCl, pH 7.0, while the bacterial assay was conducted in minimal media M9 (Table 1); both of these solutions are sufficiently transparent to allow CD and ultracentrifugation measurements (supplementary material). Under the assay conditions, the peptides gave CD spectra similar to those in Tris buffer, with the exception of H-(β^3-HLeu-β^3-HLys-β^3-HLeu)n-OH, n=5 and 6.
Antibacterial assay was performed by incubation of K 91 E. coli and peptide of different concentrations in minimal media, at pH 7.4. The peptide solution (50 μL) and K 91 E. coli culture (20 μL, grown in minimal media for 24 hr-36 hr) were mixed with 1 mL minimal media. […] The peptide dose required for 50% suppress of bacterial growth was obtained from the smooth fitted OD600 vs. log[peptide] curve.
The activity and selectivity of peptide 1 and peptide 2 were examined by antibacterial assay and hemolysis experiments. E. Coli and human erythrotytes (RBC) were used as models for bacterial cell and mammalian cell, respectively. The peptide concentration required for 50% bacterial growth suppression (IC50), and peptide concentration required for 50% RBC lysis (HD50) are listed in Table 3. […] The antibacterial activities of peptide 1 and peptide 2 are about the same except peptide 2 has slightly lower IC50. Similar trend has been observed in the previous study, that longer peptide tends to have higher activity. However, the difference in IC50 is much smaller for this series of peptide than the previously studied ones. Antibacterial peptide with good selectivity is usually represented by its low hemolysis ability. […] The HD50 is 670 μM for peptide 1 and 240 μM for peptide 2, which gives a selectivity of 111 for peptide 1 and 60 for peptide 2.

Test [1] can be described thus: Peptide binding to phospholipid bilayers by CD, SOPS/SOPC (1:9) vesicles. The conditions noted are these: single site binding fit, 42 (peptide 1) or 52 (peptide 2) lipids per peptide. How it is done: The binding affinity of peptides to phospholipid bilayers was measured using CD spectra of the peptide in the presence of varying lipid vesicle concentrations. Peptides show little structure from CD spectra in water. Upon addition of lipid vesicles, the ellipiticity at 214 nm increased as a consequence of helix formation due to interactions between the peptide and lipid surface. Small unilamellar vesicles (SUV) of SOPC/SOPS were prepared by sonicating lipid large vesicles in 10 mM phosphate buffer, pH 7. CD spectra were taken before and after the addition of aliquots of vesicle to 2 mL peptide solution in 10 mM phosphate buffer, pH 7.
The dissociation constant Kd was determined from equation (1) for single site binding:
[P](R−1)−c/n−Kd+c/(nR)=0 (1)
where [P] and c are peptide and lipid molar concentrations, respectively, n is the number of lipids per peptide binding site. R is the fraction of peptide bound, which can be calculated from equation (2): […]
To get better understanding of the binding mechanism of the peptides to lipid membranes, the dissociation constants (Kd) of peptide 1 and peptide 2 to small unilamellar lipid vesicles (SUV) were measured. Since binding to DPC micelle drives peptide 1 and peptide 2 from random coil conformation to helical conformation, the binding equilibrium can be monitored by CD spectroscopy. […]

A further test concerns micF-lux fusion. Kind of test: Stress-induced response assay, induction of micF-lux fusion. The conditions noted are these: for induction of micF-lux: Group II peptides; for micF gene fusion response: Table 4, regulatory gene Rob. Format: cell-based. How it is done:
as §2, §3, §4, §5, §6, §1

Where [2] appears, read: K91 E. coli, minimal media, pH 7.4 (DeGrado lab), read-out: IC50 *.

In turn, `CC(C)[C@@H](CC(N)=O)NC(=O)C[C@H](CCCCN)NC(=O)C[C@H](C)NC(=O)C[C@@H](NC(=O)C[C@H](CCCCN)NC(=O)C[C@H](C)NC(=O)C[C@@H](NC(=O)C[C@H](CCCCN)NC(=O)C[C@H](C)NC(=O)C[C@@H](NC(=O)C[C@H](CCCCN)NC(=O)C[C@H](C)N)C(C)C)C(C)C)C(C)C` [Peptide 1] yielded an IC50 in the test on recA-lux bioluminescence of 10 µM. In addition, in the test with osmY-lux fusion, the “induction of osmY-lux” value was “induction” and the “osmY gene fusion response” value is given as “yes”. In addition, the IC50 in the test with K91 E. coli (setting [2]) was 6 µM. Also, the half-maximal inhibitory concentration (IC50) in the test with K91 E. coli (Table 5, read-out: IC50) was determined as 6 µM. Further, binding in test [1] was characterised by a dissociation constant (Kd) of 1.4 µM. In the test with micF-lux fusion, the “induction of micF-lux” value was “induction” and the “micF gene fusion response” value is listed as “yes”.
Take `CC(C)[C@@H](CC(N)=O)NC(=O)C[C@H](CCCCN)NC(=O)C[C@H](C)NC(=O)C[C@@H](NC(=O)C[C@H](CCCCN)NC(=O)C[C@H](C)NC(=O)C[C@@H](NC(=O)C[C@H](CCCCN)NC(=O)C[C@H](C)NC(=O)C[C@@H](NC(=O)C[C@H](CCCCN)NC(=O)C[C@H](C)NC(=O)C[C@@H](NC(=O)C[C@H](CCCCN)NC(=O)C[C@H](C)N)C(C)C)C(C)C)C(C)C)C(C)C` [Peptide 2]: the IC50 with recA-lux bioluminescence came to 3 µM. In addition, in the test on osmY-lux fusion, the “induction of osmY-lux” value is recorded as “induction” and the “osmY gene fusion response” value is “yes”. Also, in the test on K91 E. coli (setting [2]), the IC50 is 4 µM. In addition, the IC50 in the test on K91 E. coli (Table 5, read-out: IC50) stood at 4 µM. The molecule further showed a Kd in test [1] of 0.3 µM. In the test with micF-lux fusion, the “induction of micF-lux” value is given as “induction” and the “micF gene fusion response” value is “yes”.

The IC50 is the concentration needed to halve the response being measured. For orientation: Kd means the concentration at which binding is half-saturated. Higher therefore signals a looser complex.
